What was measured:
Format in all cases: toxicity, cell-based
[1] = MMV: MTT Cytotoxicity Assay Day 7 pi of Assay #10 (NO washout), U87-CD4-CCR5 cells, % cell death @ 5mM compound; settings: human, u87-cd4-ccr5, 5000 µM
[2] = MMV: MTT Cytotoxicity Assay Day 7 pi of Assay #6 (compound washed out Day 1 pi), U87-CD4-CCR5 cells, % cell death @ 5mM compound; settings: human, u87-cd4-ccr5, 5000 µM
[3] = MMV: MTT Cytotoxicity Assay Day 3 pi, U87-CD4-CCR5 cells, % cell death @ 5mM compound; settings: human, u87-cd4-ccr5, 5000 µM
[4] = MMV: MTT Cytotoxicity Assay Day 7 pi of Assay #7 (compound washed out Day 1 pi), U87-CD4-CXCR4 cells, % cell death @ 5mM compound; settings: human, u87-cd4-cxcr4, 5000 µM
[5] = MMV: MTT Cytotoxicity Assay Day 7 pi of Assay #11 (NO washout), U87-CD4-CXCR4 cells, % cell death @ 5mM compound; settings: human, u87-cd4-cxcr4, 5000 µM
[6] = MMV: MTT Cytotoxicity Assay Day 3 pi, U87-CD4-CXCR4 cells, % cell death @ 5mM compound; settings: human, u87-cd4-cxcr4, 5000 µM

Row | SMILES | % Cell Death [1] | % Cell Death [2] | % Cell Death [3] | % Cell Death [4] | % Cell Death [5] | % Cell Death [6]
1 | Cl.N=c1n(CCN2CCCCC2)c2ccccc2n1CC(O)c1cccc(Br)c1 (stereo unspecified) | 11 | 10 | 2 | -20 | 8 | 27
2 | Cn1c(=O)c2cc(C(=O)NCCCN3CCCCCC3)sc2c2ccccc21 | 23 | 35 | 4 | -51 | 29 | 29
3 | COCCN(C(=O)Cc1cccs1)C(C(=O)NCc1ccc(OC)cc1)c1ccc(C(C)C)cc1 (stereo unspecified) | 140 | 16 | 13 | -10 | 68 | 12
4 | Oc1ccc(Cl)cc1CNc1nc2ccccc2[nH]1 | -8 | 10 | -44 | -38 | 24 | 10
5 | O=C(c1ccccc1F)N(Cc1ccc(Cl)cc1)c1ccccn1 | 87 | 22 | 50 | -34 | 71 | 44
6 | O=C(Nc1ccc(CN2CCOCC2)cc1)c1ccc(-c2ccc(Br)cc2)o1 | 96 | 14 | 20 | -2 | 6 | 15
7 | CC(=O)NCCc1nc2ccccc2n1Cc1ccc(C(C)C)cc1 | 13 | 34 | -2 | -3 | 14 | 15
8 | CCN(CC)c1ccc(NC(=O)c2cccs2)cc1 | 106 | 18 | 94 | 43 | 102 | 56
9 | CC(C)(C)C(=O)Nc1ccc(C(=O)Nc2cccc(-c3nc4ccccc4[nH]3)c2)cc1 | 4 | 18 | 17 | -22 | 85 | 20
10 | COc1ccc(-c2nonc2NC(=O)c2cccc(C)c2)cc1OC | -7 | -21 | 13 | -11 | -3 | 11
11 | COc1cccc(-c2nn(C)c3sc(C(=O)NCCN4CCN(c5ccccc5F)CC4)cc23)c1 | 33 | 2 | 21 | -4 | 13 | 64
12 | O=C(Nc1cccc(C(F)(F)F)c1)c1cc(Cl)ccc1O | 124 | 100 | 95 | 97 | 95 | 70
13 | CC(C)(C)c1ccc(C(=O)Nc2nc3ccccc3s2)cc1 | 24 | 20 | 1 | -23 | -30 | 12
14 | CCOc1ccc(/C=C/c2nc(=O)c3ccccc3o2)cc1 | 21 | 27 | 41 | -27 | 10 | 31
15 | CCOc1c(Cl)cc(CNC(C)C(O)c2ccccc2)cc1OC (stereo unspecified) | 98 | 0 | -4 | -15 | -28 | 22
16 | CCCN(CCC)CCCNC(=O)c1cc2c(-c3ccc(OC)c(OC)c3)nn(C)c2s1 | 100 | 59 | 51 | -24 | 103 | 9

Source: ChEMBL document CHEMBL3301472, “MMV Malaria Box HIV and cytotoxicity screening”
